Results on three molecules are retold here after patent US8153785B2, “Stabilizing ligands for regulation of protein function” (Cheminpharma LLC, priority 2009, dated 2012).

The target in the assay is T1, L106-tsLuc (FKBP L106P destabilizing domain fused to luciferase) in HCT116 cells (Homo sapiens, UniProt P62942, F37V).
T1 construct: expressed in transfected cells; host or cells: HCT116
T1 sequence (P62942 with tags, fused parts or gaps F37V limits assumed): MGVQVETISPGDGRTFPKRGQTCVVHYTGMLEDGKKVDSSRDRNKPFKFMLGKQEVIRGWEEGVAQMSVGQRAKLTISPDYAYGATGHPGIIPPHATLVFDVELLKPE
Description: Luciferase stabilization assay in HCT116 cells stably transfected with L106-tsLuc. It counts as cell-based. Particulars: 24 hour incubation, 3-fold dilutions, 10 μM to 12 nM, BrightGlo readout, read-out: luciferase activity, expressed in IC50 values. On the procedure: The compounds were assayed for their ability to bind to the destabilizing domain of the protein according the following procedure:
HCT116 cells stably transfected with L106-tsLuc were cultured in DMEM media containing 10% fetal bovine serum. 7,000 cells/well were seeded in 100 μL of DMEM/10% FBS media in a 96-well plate and incubated overnight at 37° C. in a humidified, 5% CO2 incubator. Media was replaced with fresh 100 μL of fresh DMEM/10% FBS media containing various concentrations of Shield-1, and the compounds of Example 6 (Ic), and Example 9 (Id) Compounds were added at 3-fold dilutions, concentrations ranging from 10 μM to 12 nM. After 24 hour incubation with the compounds at 37° C. in a humidified, 5% CO2 incubator, luciferase activity was measured in a luminometer after the addition of 100 μL/well BrightGlo reagent (Promega).
The IC50 is the midpoint of a concentration-inhibition curve. With `CC[C@H](C(=O)N1CCCC[C@H]1C(=O)N[C@H](CCc1ccc(OC)c(OC)c1)c1cccc(OCCN2CCOCC2)c1)c1cc(OC)c(OC)c(OC)c1` [Example 6 (Ic)], the half-maximal inhibitory concentration (IC50) is under 100 nM.

In the case of `CCN(C(=O)N1CCCC[C@H]1C(=O)N[C@H](CCc1ccc(OC)c(OC)c1)c1cccc(OCCN2CCOCC2)c1)c1ccccc1` [Example 9 (Id)], the IC50 was under 10000 nM.

For the molecule `CC[C@H](C(=O)N1CCCC[C@H]1C(=O)OC(CCc1ccc(OC)c(OC)c1)c1cccc(OCCN2CCOCC2)c1)c1cc(OC)c(OC)c(OC)c1` (stereo partly drawn) [Shield-1, reference compound], the half-maximal inhibitory concentration (IC50) is under 10 nM.
